From patent publication US20120214818A1, “METHODS OF TREATING DIASTOLIC DYSFUNCTION AND RELATED CONDITIONS” (THE BOARD OF TRUSTEES OF THE UNIVERSITY OF ILLINOIS, priority 2009, published 2012)
Several values for one entry are separate records, joined by “and”; a condition that tells them apart may be missing. Identical values can stand only once.

Test system: late INa in isolated murine ventricular myocytes
Assay: Voltage-clamp determination of sodium current (late INa)
Assay type: cell-based, mouse
Design: late INa (integrated from 5% of peak current to 40 ms after depolarization): unit not given here
Conditions: 10 μmol/L ranolazine extracellular; for late INa (integrated from 5% of peak current to 40 ms after depolarization): 15 min
Protocol: Electrophysiological determination of sodium current: Voltage-clamp experiments were performed on isolated murine ventricular myocytes with an Axopatch 200B amplifier (Molecular Devices, Sunnyvale, Calif.) in whole cell configuration. Data acquisition was performed at a sampling rate of 20 kHz and filtered at 10 kHz. Data recording and analysis were done with the pClamp8 software suite (Molecular Devices) and OriginPro 8 (Originlab, Northampton, Mass.). All experiments were carried out at room temperature. Myocytes were plated on glass cover slips and were perfused with a low-sodium Tyrode solution containing the following (in mM): N-methyl-D-glucamine 100 (titrated to pH 7.4 with HCl), NaCl 15, tetramethylammonium chloride 20, CsC15, MgCl2 1, glucose 10, 4-aminopyridine 3, MnCl2 2, HEPES10, and CaCl2 1 (final pH 7.4, CsOH). Patch electrodes were pulled from capillaries purchased from Harvard Apparatus (Holliston, Mass.) using a model P-97 puller from Sutter Instruments (Novato, Calif.). Electrodes were filled with an electrode solution containing (in mM): CsCl 20, tetraethylammonium chloride 20, glutamic acid 80, NaCl 10, MgCl2 1, MgATP 5, Li2GTP 0.3, HEPES10, EGTA 10, CaCl2 0.13 (corresponding to [Ca^2+]free of <10 nM).^23 Electrode solution pH was adjusted to 7.2 with CsOH. Electrodes used for these experiments had access resistances between 1.0 and 1.5 MΩ.
Ranolazine was provided as a crystalline solid by Gilead Sciences. Prior to experiments, a DMSO stock solution was prepared and diluted (minimum 100:1) directly into the Tyrode solution used for perfusion. Cells that were treated with ranolazine were exposed to the drug for 15 min prior to beginning voltage-clamp experiments.
Voltage clamping studies: Voltage-clamp experiments were performed on isolated murine ventricular myocytes with an Axopatch 200B amplifier (Molecular Devices, Sunnyvale, Calif.) in whole cell configuration. Data acquisition was performed at a sampling rate of 20 kHz and filtered at 10 kHz. […]

COc1ccccc1OCC(O)CN1CCN(CC(=O)Nc2c(C)cccc2C)CC1 (stereo not drawn) [ranolazine]
late accumulated charge (DOCA-salt cardiomyocytes): did not affect the late accumulated charge | late INa (integrated from 5% of peak current to 40 ms after depolarization) (DOCA-salt myocytes): 0.1142±0.01272 and 0.114±0.013 | late INa (integrated from 5% of peak current to 40 ms after depolarization) (sham myocytes): 0.1126±0.00406 and 0.113±0.004
